Consider 14 molecules from paper PMC11365428 (The Journal of Biological Chemistry, 2024).

The target of one data set is T1, apTKRPR-A (Aplysia californica, UniProt A0AAU7SSZ1).
T1 sequence (A0AAU7SSZ1 1-398): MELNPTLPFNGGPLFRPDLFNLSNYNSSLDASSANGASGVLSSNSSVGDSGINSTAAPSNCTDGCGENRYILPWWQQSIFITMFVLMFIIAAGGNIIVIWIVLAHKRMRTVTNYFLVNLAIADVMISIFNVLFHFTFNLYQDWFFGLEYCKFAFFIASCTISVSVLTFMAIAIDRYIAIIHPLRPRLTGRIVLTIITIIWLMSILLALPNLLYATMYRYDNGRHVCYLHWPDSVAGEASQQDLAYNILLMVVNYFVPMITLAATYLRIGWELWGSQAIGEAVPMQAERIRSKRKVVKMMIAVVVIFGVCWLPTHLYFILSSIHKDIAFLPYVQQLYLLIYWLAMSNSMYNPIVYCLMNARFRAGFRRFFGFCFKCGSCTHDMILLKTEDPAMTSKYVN
Description: IP1 accumulation assay, CHO-K1 cells transiently expressing apTKRPR-A. Type of data set: cell-based. How it is done: (§1) To express putative Aplysia receptors transiently in CHO-K1 cells, the cDNAs were subcloned into the pcDNA3.1(+) or pcDNA3.1(+)-FLAG (for ELISA experiments only, see “Cell surface expression analysis by ELISA” section) expression vector. On the day before transfection, the CHO-K1 cells were passaged into 60 mm diameter tissue culture–treated dishes, and the transfection experiments were performed when the cells were grown to 70 to 90% confluence. CHO-K1 cells were transfected with the cDNA plasmid constructs using Turbofect Transfection reagent (Thermo Fisher Scientific, R0531), following the manufacturer’s instructions. […] The DNA/TurboFect mixture dropwise was then added to the dish, and the cells were incubated at 37 °C in a humidified incubator containing 5% CO2 overnight.
(§2) On the third day, the activation of the putative receptors was detected by monitoring intracellular IP1 concentration using an IP-One Gq kit (Cisbio, 62IPAPEB) in Tecan Spark. Except for using 0.5x reagent, all other procedures were performed following the manufacturer’s instructions. IP1 accumulation assay measures the accumulation of IP1, which is hydrolyzed from the second messenger, and inositol triphosphate. Inositol triphosphate is generated by the Gαq pathway when a GPCR is activated by an appropriate ligand.

Another data set concerns the target T2, apTKRPR-B (Aplysia californica, UniProt A0AAU7STS1).
T2 sequence (A0AAU7STS1 1-447): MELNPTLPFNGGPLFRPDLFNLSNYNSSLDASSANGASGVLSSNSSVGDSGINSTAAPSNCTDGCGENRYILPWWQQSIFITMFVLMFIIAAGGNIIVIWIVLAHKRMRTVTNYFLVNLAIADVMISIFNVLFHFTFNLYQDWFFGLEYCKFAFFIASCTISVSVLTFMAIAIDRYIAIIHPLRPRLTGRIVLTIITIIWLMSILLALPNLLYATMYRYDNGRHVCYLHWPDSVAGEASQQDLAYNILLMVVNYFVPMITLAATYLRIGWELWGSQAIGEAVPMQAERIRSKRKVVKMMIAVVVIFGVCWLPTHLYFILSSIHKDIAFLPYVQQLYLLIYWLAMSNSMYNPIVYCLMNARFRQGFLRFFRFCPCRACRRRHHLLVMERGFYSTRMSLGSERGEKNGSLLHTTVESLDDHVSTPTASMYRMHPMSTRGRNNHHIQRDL
Description: IP1 accumulation assay, CHO-K1 cells transiently expressing apTKRPR-B. It counts as cell-based. How it is done: as §1, §2

The conditions of data set [1]: trifluoroacetate counter ion, ref ChinaPeptides Co., Ltd. certificate of analysis (Fig. S21), cited from earlier work.
Data set [2] addresses Aplysia tachykinin-related peptide receptor A (apTKRPR-A) (Aplysia californica).
In data set [3] the target is Aplysia tachykinin-related peptide receptor B (apTKRPR-B) (Aplysia californica).
Where [4] appears, read: log10 of EC50 in M, negative, IP1 accumulation, CHO-K1, mean ± SD of at least three independent experiments (apTKRP-1 n = 9; apTKRP-2a n = 11; apTKRP-2b n = 19; analogs, apTKRP-2b-OH n = 4), read-out: apTKRPR-A log[EC50] (converted).
[5] abbreviates: log10 of EC50 in M, negative, IP1 accumulation, CHO-K1, mean ± SD of at least three independent experiments (apTKRP-1 n = 9; apTKRP-2a n = 11; apTKRP-2b n = 19; analogs, apTKRP-2b-OH n = 4), read-out: apTKRPR-B log[EC50] (converted).

≈ marks a conversion by molar mass, not a printed value. Read-outs that look alike come from different tables or passages of the source. Non-standard residues stand in square brackets, D forms with d. Residues, ends and D or L forms follow the SMILES beside them. No end group written: not given here. pGlu = O=C1CC[C@@H](C(=O)O)N1

Broadly, the EC50 is the concentration that produces a half-maximal response. What is called Solubility is the concentration that dissolves in the medium under given conditions. For the molecule `C[C@H](NC(=O)[C@H](Cc1c[nH]cn1)NC(=O)[C@@H]1CCCN1C(=O)[C@@H]1CCC(=O)N1)C(=O)NCC(=O)N[C@@H](Cc1ccccc1)C(=O)N[C@@H](Cc1c[nH]cn1)C(=O)NCC(=O)N[C@@H](CO)C(=O)N[C@@H](CCCNC(=N)N)C(N)=O` [[Ala^4]apTKRP-2b] ([pGlu]PHAGFHGSR-NH2), the values for the EC50 at apTKRPR-A and on apTKRPR-B were 9.77 nM and 1.7 nM, respectively. In addition, in data set [1] (in 13%ACN/87%H2O), the Solubility was 1 mg/mL (≈ 930 µM).
For `CC(C)C[C@H](NC(=O)[C@H](Cc1c[nH]cn1)NC(=O)[C@@H]1CCCN1C(=O)[C@@H]1CCC(=O)N1)C(=O)NCC(=O)N[C@@H](Cc1ccccc1)C(=O)N[C@@H](Cc1c[nH]cn1)C(=O)NCC(=O)N[C@@H](CO)C(=O)N[C@@H](C)C(N)=O` [[Ala^10]apTKRP-2b] ([pGlu]PHLGFHGSA-NH2), the EC50 at apTKRPR-A and at apTKRPR-B was more than 10000 nM throughout. The Solubility in data set [1] (in 15%ACN/85%H2O) is 1 mg/mL (≈ 969 µM).
As to `CC(C)C[C@H](NC(=O)[C@H](Cc1c[nH]cn1)NC(=O)[C@@H]1CCCN1C(=O)[C@@H]1CCC(=O)N1)C(=O)NCC(=O)N[C@@H](C)C(=O)N[C@@H](Cc1c[nH]cn1)C(=O)NCC(=O)N[C@@H](CO)C(=O)N[C@@H](CCCNC(=N)N)C(N)=O` [[Ala^6]apTKRP-2b] ([pGlu]PHLGAHGSR-NH2), the results for the EC50 at apTKRPR-A and at apTKRPR-B were 1510 nM and 537 nM, respectively. Also, in data set [1] (in 13%ACN/87%H2O), the Solubility is 1 mg/mL (≈ 960 µM).
With `CC(C)C[C@H](NC(=O)[C@H](Cc1c[nH]cn1)NC(=O)[C@@H]1CCCN1C(=O)[C@@H]1CCC(=O)N1)C(=O)N[C@@H](C)C(=O)N[C@@H](Cc1ccccc1)C(=O)N[C@@H](Cc1c[nH]cn1)C(=O)NCC(=O)N[C@@H](CO)C(=O)N[C@@H](CCCNC(=N)N)C(N)=O` [[Ala^5]apTKRP-2b] ([pGlu]PHLAFHGSR-NH2), the figures for the EC50 on apTKRPR-A and on apTKRPR-B were 1660 nM and 537 nM, respectively. For the same molecule, the Solubility in data set [1] (in 15%ACN/85%H2O) is 1 mg/mL (≈ 884 µM).
Turning to `CC(C)C[C@H](NC(=O)[C@H](C)NC(=O)[C@@H]1CCCN1C(=O)[C@@H]1CCC(=O)N1)C(=O)NCC(=O)N[C@@H](Cc1ccccc1)C(=O)N[C@@H](Cc1c[nH]cn1)C(=O)NCC(=O)N[C@@H](CO)C(=O)N[C@@H](CCCNC(=N)N)C(N)=O` [[Ala^3]apTKRP-2b] ([pGlu]PALGFHGSR-NH2), the EC50 is 295 nM on apTKRPR-A and 32.4 nM at apTKRPR-B. Moreover, the Solubility in data set [1] (in 15%ACN/85%H2O) is 1 mg/mL (≈ 951 µM).
Regarding `CC(C)C[C@H](NC(=O)[C@H](Cc1c[nH]cn1)NC(=O)[C@@H]1CCCN1C(=O)[C@@H]1CCC(=O)N1)C(=O)NCC(=O)N[C@@H](Cc1ccccc1)C(=O)N[C@@H](Cc1c[nH]cn1)C(=O)NCC(=O)N[C@@H](C)C(=O)N[C@@H](CCCNC(=N)N)C(N)=O` [[Ala^9]apTKRP-2b] ([pGlu]PHLGFHGAR-NH2), the values for the half-maximal effective concentration (EC50) on apTKRPR-A and at apTKRPR-B were 195 nM and 17.4 nM, respectively. The Solubility in data set [1] (in 15%ACN/85%H2O) was 1 mg/mL (≈ 908 µM).
Turning to `CC(C)C[C@H](NC(=O)[C@H](Cc1c[nH]cn1)NC(=O)[C@H](C)NC(=O)[C@@H]1CCC(=O)N1)C(=O)NCC(=O)N[C@@H](Cc1ccccc1)C(=O)N[C@@H](Cc1c[nH]cn1)C(=O)NCC(=O)N[C@@H](CO)C(=O)N[C@@H](CCCNC(=N)N)C(N)=O` [[Ala^2]apTKRP-2b] ([pGlu]AHLGFHGSR-NH2), the values for the EC50 on apTKRPR-A and on apTKRPR-B were 309 nM and 33.1 nM, respectively. In addition, in data set [1] (in 15%ACN/85%H2O), the Solubility is 1 mg/mL (≈ 916 µM).
Consider FKPSGFMGSR-NH2 [apTKRP-1], for which the EC50 is 145 nM on apTKRPR-A (setting [4]) and 24.5 nM at apTKRPR-B (setting [5]).
As to `CC(C)C[C@H](NC(=O)[C@H](Cc1c[nH]cn1)NC(=O)[C@@H]1CCCN1C(=O)[C@@H]1CCC(=O)N1)C(=O)NCC(=O)N[C@@H](Cc1ccccc1)C(=O)N[C@@H](C)C(=O)NCC(=O)N[C@@H](CO)C(=O)N[C@@H](CCCNC(=N)N)C(N)=O` [[Ala^7]apTKRP-2b] ([pGlu]PHLGFAGSR-NH2), the midpoint of the response on apTKRPR-A, the EC50, lay at 1070 nM. Moreover, in data set [1] (in 15%ACN/85%H2O), the Solubility was 1 mg/mL (≈ 951 µM).
Take `CC(C)C[C@H](NC(=O)[C@H](Cc1c[nH]cn1)NC(=O)[C@@H]1CCCN1C(=O)[C@@H]1CCC(=O)N1)C(=O)NCC(=O)N[C@@H](Cc1ccccc1)C(=O)N[C@@H](Cc1c[nH]cn1)C(=O)NCC(=O)N[C@@H](CO)C(=O)N[C@@H](CCCNC(=N)N)C(=O)O` [apTKRP-2b-OH] ([pGlu]PHLGFHGSR-OH): the EC50 was more than 10000 nM at apTKRPR-A (IP1 accumulation, CHO-K1, from average log[EC50], read-out: apTKRPR-A [EC50]); more than 10000 nM on apTKRPR-A (setting [4]); more than 10000 nM on apTKRPR-B (IP1 accumulation, CHO-K1, from average log[EC50], read-out: apTKRPR-B [EC50]); more than 10000 nM at apTKRPR-B (setting [5]).
In the case of `CC(C)C[C@H](NC(=O)[C@H](Cc1c[nH]cn1)NC(=O)[C@@H]1CCCN1C(=O)[C@@H]1CCC(=O)N1)C(=O)NCC(=O)N[C@@H](Cc1ccccc1)C(=O)N[C@@H](Cc1c[nH]cn1)C(=O)N[C@@H](C)C(=O)N[C@@H](CO)C(=O)N[C@@H](CCCNC(=N)N)C(N)=O` [[Ala^8]apTKRP-2b] ([pGlu]PHLGFHASR-NH2), the 50% effective concentration (EC50) was 20.9 nM on apTKRPR-A and 3.09 nM on apTKRPR-B. Moreover, the Solubility in data set [1] (in 15%ACN/85%H2O) is 1 mg/mL (≈ 884 µM).

B1: apTKRP-2b analog with Asp instead of Gly at position eight (peptide)
peptide: [pGlu]PHLGFHDSR-NH2
SMILES: CC(C)C[C@H](NC(=O)[C@H](Cc1c[nH]cn1)NC(=O)[C@@H]1CCCN1C(=O)[C@@H]1CCC(=O)N1)C(=O)NCC(=O)N[C@@H](Cc1ccccc1)C(=O)N[C@@H](Cc1c[nH]cn1)C(=O)N[C@@H](CC(=O)O)C(=O)N[C@@H](CO)C(=O)N[C@@H](CCCNC(=N)N)C(N)=O
For B1, the EC50 of IP1 accumulation in CHO-K1 cells expressing the receptor in data set [2] and in data set [3] was more than 10 µM in each case.

B2: apTKRP-2b analog with Lys instead of Gly at position eight (peptide)
peptide: [pGlu]PHLGFHKSR-NH2
SMILES: CC(C)C[C@H](NC(=O)[C@H](Cc1c[nH]cn1)NC(=O)[C@@H]1CCCN1C(=O)[C@@H]1CCC(=O)N1)C(=O)NCC(=O)N[C@@H](Cc1ccccc1)C(=O)N[C@@H](Cc1c[nH]cn1)C(=O)N[C@@H](CCCCN)C(=O)N[C@@H](CO)C(=O)N[C@@H](CCCNC(=N)N)C(N)=O
As for B2, the EC50 of IP1 accumulation in CHO-K1 cells expressing the receptor in data set [2] and in data set [3] was more than 10 µM each time.

B3: apTKRP-2b analog with Leu instead of Gly at position eight (peptide)
peptide: [pGlu]PHLGFHLSR-NH2
SMILES: CC(C)C[C@H](NC(=O)[C@H](Cc1c[nH]cn1)NC(=O)[C@@H]1CCCN1C(=O)[C@@H]1CCC(=O)N1)C(=O)NCC(=O)N[C@@H](Cc1ccccc1)C(=O)N[C@@H](Cc1c[nH]cn1)C(=O)N[C@@H](CC(C)C)C(=O)N[C@@H](CO)C(=O)N[C@@H](CCCNC(=N)N)C(N)=O
In the case of B3, the EC50 of IP1 accumulation in CHO-K1 cells expressing the receptor in data set [2] and in data set [3] was more than 10 µM in each case.
